Laboratory results from the supplement of paper PMC4862054.
Where “and” joins values, the source holds several entries; their conditions need not be identical. Equal entries are not always repeated.

How the values were obtained:
Details in all cases: incubation time: 72 h
BT-549 = assay: normalised response (% of control), CellTiter-Glo; higher = more viable cells (100 = DMSO, 0 = benzethonium chloride kill control)
In short: (§1)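 The table gives the normalised signal for a single concentration in each entry. Breast cancer cell lines were seeded (20 µl suspension) into 384-well plates holding compound at 5 concentrations in 10-fold steps over a compound-specific 10,000-fold range and incubated 72 h, then read for CellTox Green fluorescence (485/520 nm) and CellTiter-Glo luminescence. Normalisation on each plate used 0.1 % DMSO (100) and a positive kill control (0).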

MCF-10A = assay: as above
In short: as §1

MDA-MB-436 = assay: as above
In short: as §1

MFM-223 = assay: as above
In short: as §1

MDA-MB-468 = assay: as above
In short: as §1

HDQ-P1 [1] = assay: as above
In short: as §1

BT-474 = assay: as above
In short: as §1

CAL-120 = assay: as above
In short: as §1

HCC1143 = assay: as above
In short: as §1

MDA-MB-231 = assay: as above
In short: as §1

CAL-148 [2] = assay: as above
In short: as §1

SK-BR-3 = assay: as above
In short: as §1

HCC1599 = assay: as above
In short: as §1

HCC1937 = assay: as above
In short: as §1

Hs578T = assay: as above
In short: as §1

CAL-85-1 [3] = assay: as above
In short: as §1

MDA-MB-453 [4] = assay: as above
In short: as §1

CAL-51 [5] = assay: as above
In short: as §1

HDQ-P1 [6] = assay: normalised viability (% of control), CellTiter-Blue; higher = more viable cells (about 100 = DMSO control)
In short: (§2)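 Plates were quality-checked by Z'-factor and normalised to vehicle (100) and a positive kill control (0). The underlying assay incubated breast cancer cell lines for 72 h on 384-well plates with compound, then added 2.5 µl CellTiter-Blue for 2 h at 37 °C and read at 560/590 nm. The value is normalised viability at a single listed concentration of the series.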

CAL-148 [7] = assay: as above
In short: as §2

DU-4475 = assay: as above
In short: as §2

CAL-85-1 [8] = assay: as above
In short: as §2

MDA-MB-453 [9] = assay: as above
In short: as §2

CAL-51 [10] = assay: as above
In short: as §2

CO[C@H](C(=O)[C@@H](O)[C@@H](C)O)[C@@H]1Cc2cc3cc(O[C@H]4C[C@@H](O[C@@H]5C[C@@H](O)[C@H](O)[C@@H](C)O5)[C@H](O)[C@@H](C)O4)c(C)c(O)c3c(O)c2C(=O)[C@H]1O[C@H]1C[C@@H](O[C@@H]2C[C@@H](O)[C@@H](O[C@@H]3C[C@](C)(O)[C@H](O)[C@@H](C)O3)[C@@H](C)O2)[C@H](O)[C@@H](C)O1 [Plicamycin] (1000 nM)
normalised response (BT-549): 89.5% | normalised response (MCF-10A): 110% | normalised response (MDA-MB-436): 103% | normalised response (MFM-223): 104% | normalised response (MDA-MB-468): 91% | normalised response (HDQ-P1 [1]): 102% | normalised response (BT-474): 91% | normalised response (CAL-120): 105% | normalised response (HCC1143): 101% | normalised response (MDA-MB-231): 94.2% | normalised response (CAL-148 [2]): 104% | normalised response (SK-BR-3): 106% | normalised response (HCC1599): 120% | normalised response (HCC1937): 90% | normalised response (Hs578T): 104% | normalised response (CAL-85-1 [3]): 100% | normalised response (MDA-MB-453 [4]): 105% | normalised response (CAL-51 [5]): 86.9% | normalised viability (HDQ-P1 [6]): 32.4% and 21.1% | normalised viability (CAL-148 [7]): 2.42% and 2.71% | normalised viability (DU-4475): 0.92% and -0.07% | normalised viability (CAL-85-1 [8]): 6.52% and 5.6% | normalised viability (MDA-MB-453 [9]): 8.78% and 7.08% | normalised viability (CAL-51 [10]): 4.92% and 5.48%

C[C@]12C=CC(=O)C=C1CC[C@@H]1[C@@H]2C(=O)C[C@@]2(C)[C@H]1CC[C@]2(O)C(=O)CO [Prednisone] (1000 nM)
normalised response (BT-549): 95.4% | normalised response (MCF-10A): 108% | normalised response (MDA-MB-436): 104% | normalised response (MFM-223): 101% | normalised response (MDA-MB-468): 103% | normalised response (HDQ-P1 [1]): 100% | normalised response (BT-474): 104% | normalised response (CAL-120): 102% | normalised response (HCC1143): 102% | normalised response (MDA-MB-231): 103% | normalised response (CAL-148 [2]): 105% | normalised response (SK-BR-3): 103% | normalised response (HCC1599): 113% | normalised response (HCC1937): 101% | normalised response (Hs578T): 110% | normalised response (CAL-85-1 [3]): 92.9% | normalised response (MDA-MB-453 [4]): 106% | normalised response (CAL-51 [5]): 120% | normalised viability (HDQ-P1 [6]): 122% | normalised viability (CAL-148 [7]): 101% | normalised viability (DU-4475): 96.3% | normalised viability (CAL-85-1 [8]): 94.2% | normalised viability (MDA-MB-453 [9]): 96.7% | normalised viability (CAL-51 [10]): 93.1%

CN1CCN(c2nc(C3=C(c4c[nH]c5ccccc45)C(=O)NC3=O)c3ccccc3n2)CC1 [Sotrastaurin] (1000 nM)
normalised response (BT-549): 101% | normalised response (MCF-10A): 95.3% | normalised response (MDA-MB-436): 102% | normalised response (MFM-223): 91.6% | normalised response (MDA-MB-468): 91.6% | normalised response (HDQ-P1 [1]): 93.5% | normalised response (BT-474): 105% | normalised response (CAL-120): 93.7% | normalised response (HCC1143): 92.5% | normalised response (MDA-MB-231): 108% | normalised response (CAL-148 [2]): 88% | normalised response (SK-BR-3): 90.9% | normalised response (HCC1599): 115% | normalised response (HCC1937): 96% | normalised response (Hs578T): 101% | normalised response (CAL-85-1 [3]): 121% | normalised response (MDA-MB-453 [4]): 102% | normalised response (CAL-51 [5]): 122% | normalised viability (HDQ-P1 [6]): 100% | normalised viability (CAL-148 [7]): 111% | normalised viability (DU-4475): 95.8% | normalised viability (CAL-85-1 [8]): 124% | normalised viability (MDA-MB-453 [9]): 89.7% | normalised viability (CAL-51 [10]): 74.3%

CC/C(=C(\c1ccccc1)c1ccc(OCCN(C)C)cc1)c1ccccc1 [Tamoxifen] (1000 nM)
normalised response (BT-549): 96.1% | normalised response (MCF-10A): 104% | normalised response (MDA-MB-436): 97.7% | normalised response (MFM-223): 97.9% | normalised response (MDA-MB-468): 93.8% | normalised response (HDQ-P1 [1]): 106% | normalised response (BT-474): 95.9% | normalised response (CAL-120): 94.8% | normalised response (HCC1143): 104% | normalised response (MDA-MB-231): 103% | normalised response (CAL-148 [2]): 103% | normalised response (SK-BR-3): 103% | normalised response (HCC1599): 107% | normalised response (HCC1937): 102% | normalised response (Hs578T): 106% | normalised response (CAL-85-1 [3]): 99.8% | normalised response (MDA-MB-453 [4]): 93.1% | normalised response (CAL-51 [5]): 81.8% | normalised viability (HDQ-P1 [6]): 98.7% | normalised viability (CAL-148 [7]): 124% | normalised viability (DU-4475): 112% | normalised viability (CAL-85-1 [8]): 101% | normalised viability (MDA-MB-453 [9]): 105% | normalised viability (CAL-51 [10]): 78.4%

COc1cc2c(N3CCN(C(=O)Nc4ccc(OC(C)C)cc4)CC3)ncnc2cc1OCCCN1CCCCC1 [Tandutinib] (100 nM)
normalised response (BT-549): 103% | normalised response (MCF-10A): 96.6% | normalised response (MDA-MB-436): 114% | normalised response (MFM-223): 101% | normalised response (MDA-MB-468): 103% | normalised response (HDQ-P1 [1]): 102% | normalised response (BT-474): 105% | normalised response (CAL-120): 101% | normalised response (HCC1143): 103% | normalised response (MDA-MB-231): 106% | normalised response (CAL-148 [2]): 101% | normalised response (SK-BR-3): 98.4% | normalised response (HCC1599): 121% | normalised response (HCC1937): 100% | normalised response (Hs578T): 96.3% | normalised response (CAL-85-1 [3]): 109% | normalised response (MDA-MB-453 [4]): 97.4% | normalised response (CAL-51 [5]): 96.2% | normalised viability (HDQ-P1 [6]): 112% | normalised viability (CAL-148 [7]): 101% | normalised viability (DU-4475): 117% | normalised viability (CAL-85-1 [8]): 100% | normalised viability (MDA-MB-453 [9]): 97.6% | normalised viability (CAL-51 [10]): 107%

C[C@@H](C(=O)O)c1ccc(-c2ccccc2)c(F)c1 [Tarenflurbil] (1000 nM)
normalised response (BT-549): 99.3% | normalised response (MCF-10A): 90.1% | normalised response (MDA-MB-436): 100% | normalised response (MFM-223): 95% | normalised response (MDA-MB-468): 94.8% | normalised response (HDQ-P1 [1]): 94.7% | normalised response (BT-474): 92% | normalised response (CAL-120): 96.5% | normalised response (HCC1143): 92.5% | normalised response (MDA-MB-231): 95% | normalised response (CAL-148 [2]): 91.7% | normalised response (SK-BR-3): 87.8% | normalised response (HCC1599): 106% | normalised response (HCC1937): 94.7% | normalised response (Hs578T): 101% | normalised response (CAL-85-1 [3]): 98.8% | normalised response (MDA-MB-453 [4]): 96% | normalised response (CAL-51 [5]): 119% | normalised viability (HDQ-P1 [6]): 83.2% | normalised viability (CAL-148 [7]): 92.5% | normalised viability (DU-4475): 108% | normalised viability (CAL-85-1 [8]): 90% | normalised viability (MDA-MB-453 [9]): 87.7% | normalised viability (CAL-51 [10]): 109%

Cn1nnc2c(C(N)=O)ncn2c1=O [Temozolomide] (1000 nM)
normalised response (BT-549): 101% | normalised response (MCF-10A): 104% | normalised response (MDA-MB-436): 104% | normalised response (MFM-223): 94.8% | normalised response (MDA-MB-468): 91.8% | normalised response (HDQ-P1 [1]): 98.8% | normalised response (BT-474): 95.4% | normalised response (CAL-120): 99.3% | normalised response (HCC1143): 98.1% | normalised response (MDA-MB-231): 93.3% | normalised response (CAL-148 [2]): 97.6% | normalised response (SK-BR-3): 92% | normalised response (HCC1599): 116% | normalised response (HCC1937): 93.9% | normalised response (Hs578T): 91.7% | normalised response (CAL-85-1 [3]): 99.4% | normalised response (MDA-MB-453 [4]): 100% | normalised response (CAL-51 [5]): 76.4% | normalised viability (HDQ-P1 [6]): 100% | normalised viability (CAL-148 [7]): 113% | normalised viability (DU-4475): 101% | normalised viability (CAL-85-1 [8]): 104% | normalised viability (MDA-MB-453 [9]): 93.6% | normalised viability (CAL-51 [10]): 89.7%

CC[C@@H]1C(=O)N(C)c2cnc(Nc3ccc(C(=O)N[C@H]4CC[C@H](N5CCN(CC6CC6)CC5)CC4)cc3OC)nc2N1C(C)C [Volasertib] (100 nM)
normalised response (BT-549): 25.9% | normalised response (MCF-10A): 58.5% | normalised response (MDA-MB-436): 50.1% | normalised response (MFM-223): 42% | normalised response (MDA-MB-468): 36.5% | normalised response (HDQ-P1 [1]): 76.6% | normalised response (BT-474): 63.6% | normalised response (CAL-120): 64.4% | normalised response (HCC1143): 50.5% | normalised response (MDA-MB-231): 48.5% | normalised response (CAL-148 [2]): 53% | normalised response (SK-BR-3): 16.1% | normalised response (HCC1599): 45.6% | normalised response (HCC1937): 81% | normalised response (Hs578T): 54.6% | normalised response (CAL-85-1 [3]): 53% | normalised response (MDA-MB-453 [4]): 77.3% | normalised response (CAL-51 [5]): 23.7% | normalised viability (HDQ-P1 [6]): 51.7% | normalised viability (CAL-148 [7]): 23.4% | normalised viability (DU-4475): 21% | normalised viability (CAL-85-1 [8]): 42% | normalised viability (MDA-MB-453 [9]): 24.5% | normalised viability (CAL-51 [10]): 15.7%
